EP4711368A1 (priority 2023, dated 2024)
Read-outs that look alike come from different tables or passages of the source.

Key:
[1] = tested on: SD rats; experiment: animal or person; assay type: in vivo; settings: iv; for minimal effective dose: Rattus norvegicus; for Onset time / Righting feflex duration / Sedation Duration: rat, in vivo
[2] = tested on: SD rats; settings: SD, rat, in vivo; for MLD: iv; for Onset time: test concentration or dose not given here; for Righting feflex duration: test concentration or dose not given here; for Sedation Duration: test concentration or dose not given here
[3] = read-out: Minimal effective analgesic dose
[4] = read-out: Minimal effective anesthetic dose

Row | SMILES | minimal effective dose [1, 3] | minimal effective dose [1, 4] | Onset time [1] | Righting feflex duration [1] | Sedation Duration [1] | TI [2] | MLD [2]
1 | CN1C(=O)N(COC(=O)CCCl)N=C(c2ccccn2)c2cc(Br)ccc21 [Compound 290] | 15 mg/kg | 15 mg/kg | 0.45 min | 6.63 min | 18.08 min | 1.3 | 20 mg/kg
2 | CN(C)C(=O)OCN1N=C(c2ccccn2)c2cc(Br)ccc2N(C)C1=O [Compound 291] | 15 mg/kg | 15 mg/kg | 0.65 to 0.92 min | 2.03 to 5.98 min |  | 2 | 30 mg/kg
3 | CCN(C)C(=O)OCN1N=C(c2ccccn2)c2cc(Br)ccc2N(C)C1=O [Compound 292] | 20 mg/kg | 20 mg/kg | 0.40 min | 2.75 min | 46.82 min | 1.5 | 30 mg/kg
4 | CC(C)N(C)C(=O)OCN1N=C(c2ccccn2)c2cc(Br)ccc2N(C)C1=O [Compound 293] | 15 mg/kg | 15 mg/kg | 0.95 min | 4.20 min | 82.85 min | 1.3 | 20 mg/kg
5 | CON(C)C(=O)OCN1N=C(c2ccccn2)c2cc(Br)ccc2N(C)C1=O [Compound 294] |  | 15 mg/kg | 0.52 to 0.55 min | 3.35 to 6.47 min | 28.68 to 40.58 min | >1.3 | >20 mg/kg
6 | CN1C(=O)N(COC(=O)N2CCCC2)N=C(c2ccccn2)c2cc(Br)ccc21 [Compound 295] |  | 20 mg/kg | 0.20 to 0.52 min | 3.70 to 13.25 min | 34.23 to 172.50 min | 2 | 40 mg/kg
7 | CC(C)C(=O)OCCN1N=C(c2ccccn2)c2cc(Br)ccc2N(C)C1=O [Compound 298] |  | 10 mg/kg | 0.22 to 0.38 min | 6.73 to 8.97 min | 17.03 to 30.07 min | 2 | 20 mg/kg
8 | CN1C(=O)N(CCOC(=O)CCl)N=C(c2ccccn2)c2cc(Br)ccc21 [Compound 300] |  | 40 mg/kg | 0.25 min | 4.67 min | 76.20 min | >1 | >40 mg/kg
9 | CC(F)C(=O)OCCN1N=C(c2ccccn2)c2cc(Br)ccc2N(C)C1=O (stereo not drawn) [Compound 303] |  | 20 mg/kg | 0.43 min | 14.30 min | 74.88 min | >1 | >20 mg/kg
10 | CN(C)C(=O)OCCN1N=C(c2ccccn2)c2cc(Br)ccc2N(C)C1=O [Compound 304] |  | 5 mg/kg | 0.18 to 0.57 min | 1.92 to 5.35 min | 10.57 to 18.57 min | 4 | 20 mg/kg
11 | CCOC(=O)CN1N=C(c2ccccn2)c2cc(Br)ccc2-n2c(C)cnc21 [Compound 307] |  | 8.75 mg/kg | 0.27 to 0.73 min | 0.90 to 4.27 min | 20.87 to 32.75 min | >1.7 | >15.15 mg/kg
12 | CC[C@@H](C)OC(=O)CN1N=C(c2ccccn2)c2cc(Br)ccc2-n2c(C)cnc21 [Compound 309] | 12.5 mg/kg | 2.5 mg/kg | 0.35 to 0.55 min | 2.38 to 18.82 min | 27.68 to 46.83 min | 6 | 15 mg/kg
13 | C=CC(C)OC(=O)CN1N=C(c2ccccn2)c2cc(Br)ccc2-n2c(C)cnc21 (stereo not drawn) [Compound 310] | 20 mg/kg | 10 mg/kg | 0.15 to 0.52 min | 2.97 to 38.32 min | 138.40 to 240 min | 4 | 40 mg/kg
14 | Cc1cnc2n1-c1ccc(Br)cc1C(c1ccccn1)=NN2CC(=O)OC1COC1 [Compound 311] | 10 mg/kg | 5 mg/kg | 0.17 to 0.48 min | 2.28 to 12.30 min | 25.88 to 54.23 min | 6 | 30 mg/kg
15 | C#C[C@@H](C)OC(=O)CN1N=C(c2ccccn2)c2cc(Br)ccc2-n2c(C)cnc21 [Compound 312] | 10 mg/kg | 10 mg/kg | 0.15 to 0.52 min | 2.97 to 38.32 min | 138.40 to 240 min | 4 | 40 mg/kg
16 | CCC(C)(C)OC(=O)CN1N=C(c2ccccn2)c2cc(Br)ccc2-n2c(C)cnc21 [Compound 313] | 20 mg/kg | 15 mg/kg | 0.53 to 0.97 min | 12.27 to 13.62 min | 43.43 to 66.15 min | 2 | 30 mg/kg
17 | Cc1cnc2n1-c1ccc(Br)cc1C(c1ccccn1)=NN2CC(=O)OC1(C)COC1 [Compound 314] |  | 10 mg/kg | 0.15 to 0.67 min | 1.27 to 1.40 min | 11.02 to 18.83 min | 4 | 40 mg/kg
18 | Cc1cnc2n1-c1ccc(Br)cc1C(c1ccccn1)=NN2CCOC(=O)C(C)C [Compound 315] | 30 mg/kg | 3.75 mg/kg | 0.38 to 0.75 min | 0.58 to 2.35 min | 14.12 to 24.55 min | 2.7 | 10 mg/kg
19 | Cc1cnc2n1-c1ccc(Br)cc1C(c1ccccn1)=NN2CCOC(=O)N(C)C [Compound 317] | 10 mg/kg | 5 mg/kg | 0.22 to 0.38 min | 4.08 to 25.97 min | 18.73 to 70.28 min | 4 | 20 mg/kg
20 | Cc1cnc2n1-c1ccc(Br)cc1C(c1ccccn1)=NN2COC(=O)C(C)C [Compound 318] |  | 5 mg/kg | 0.52 to 0.63 min | 0.58 to 10.53 min | 24.95 to 35.65 min | >2 | >10 mg/kg
21 | Cc1cnc2n1-c1ccc(Br)cc1C(c1ccccn1)=NN2COC(=O)CCCl [Compound 319] |  | 7.5 mg/kg | 0.38 to 0.48 min | 7.58 to 8.00 min | 21.82 to 52.53 min | >1.3 | >10 mg/kg
22 | Cc1cnc2n1-c1ccc(Br)cc1C(c1ccccn1)=NN2COC(=O)N(C)C [Compound 320] | 15 mg/kg | 15 mg/kg | 0.65 to 0.92 min | 2.03 to 5.98 min |  | 2 | 30 mg/kg
23 | Brc1ccc2c(c1)C(c1ccccn1)=NN1CCN=C1N2 [Compound 323] | 30 mg/kg | 30 mg/kg | 0.95 to 1.07 min | 13.12 to 21.08 min |  | >1.3 | >40 mg/kg
24 | CC(C)OC(=O)CN1C2=NCCN2N=C(c2ccccn2)c2cc(Br)ccc21 [Compound 325] | 40 mg/kg | 40 mg/kg | 0.65 min | 3.65 min | 59.22 min | >1 | >40 mg/kg
25 | CCOC(=O)CN1N=C(c2ccccn2)C(Br)=CN(C)C1=O [Compound 346] | 18.4 mg/kg | 18.4 mg/kg | 0.57 min | 2.63 min | 45.10 min | >1 | >18.4 mg/kg
